Assays:
[1] = target: T1, Disintegrin and metalloproteinase domain-containing protein 17 (Homo sapiens, UniProt P78536); assay: Inhibition of recombinant human TACE catalytic domain using Mca-Pro-Leu-Ala-Gln-Ala-Val-Dpa-Arg-Ser-Ser-Ser-Arg-NH2 as substrate after 2 hrs by fluorescence assay
[2] = target: T1, Disintegrin and metalloproteinase domain-containing protein 17; assay: Inhibition of recombinant TACE catalytic domain (unknown origin) using Abz-LAQAVRSSSR-Dpa as substrate preincubated for 10 mins followed by substrate addition measured after 10 mins by FRET assay
[3] = target: Disintegrin and metalloproteinase domain-containing protein 17 (Mus musculus, UniProt Q9Z0F8); assay: Inhibition of TACE in mouse RAW264.7 cells assessed as inhibition of LPS-stimulated TNFalpha production pretreated for 1 hr followed by LPS stimulation for 4 hrs by ELISA; assay type: cell-based
Sequence of Disintegrin and metalloproteinase domain-containing protein 17 (Mus musculus, UniProt Q9Z0F8) (Q9Z0F8 whole entry, the tested form may be a part): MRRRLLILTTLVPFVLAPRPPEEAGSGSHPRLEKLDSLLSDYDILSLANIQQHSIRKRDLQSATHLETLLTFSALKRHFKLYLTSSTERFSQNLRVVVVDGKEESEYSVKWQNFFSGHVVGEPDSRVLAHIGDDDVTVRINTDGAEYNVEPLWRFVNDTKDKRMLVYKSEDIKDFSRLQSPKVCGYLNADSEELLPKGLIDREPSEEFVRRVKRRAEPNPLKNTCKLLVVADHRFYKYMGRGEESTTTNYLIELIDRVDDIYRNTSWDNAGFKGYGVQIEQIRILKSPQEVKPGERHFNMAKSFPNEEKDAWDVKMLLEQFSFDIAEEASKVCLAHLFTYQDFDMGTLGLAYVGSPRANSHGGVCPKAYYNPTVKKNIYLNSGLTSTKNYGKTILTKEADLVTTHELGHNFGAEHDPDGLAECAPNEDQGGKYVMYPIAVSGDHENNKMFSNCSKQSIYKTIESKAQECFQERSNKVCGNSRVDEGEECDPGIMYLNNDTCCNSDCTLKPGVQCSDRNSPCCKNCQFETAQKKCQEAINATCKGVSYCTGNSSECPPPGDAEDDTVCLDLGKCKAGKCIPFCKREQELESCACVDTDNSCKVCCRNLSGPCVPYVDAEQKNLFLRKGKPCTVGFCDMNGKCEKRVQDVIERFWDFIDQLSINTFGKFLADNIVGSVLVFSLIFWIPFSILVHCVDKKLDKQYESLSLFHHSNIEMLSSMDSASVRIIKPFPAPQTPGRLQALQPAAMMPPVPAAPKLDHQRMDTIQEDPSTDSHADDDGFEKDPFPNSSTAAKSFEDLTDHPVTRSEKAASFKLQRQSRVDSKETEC

T1 sequence (P78536 whole entry, the tested form may be a part): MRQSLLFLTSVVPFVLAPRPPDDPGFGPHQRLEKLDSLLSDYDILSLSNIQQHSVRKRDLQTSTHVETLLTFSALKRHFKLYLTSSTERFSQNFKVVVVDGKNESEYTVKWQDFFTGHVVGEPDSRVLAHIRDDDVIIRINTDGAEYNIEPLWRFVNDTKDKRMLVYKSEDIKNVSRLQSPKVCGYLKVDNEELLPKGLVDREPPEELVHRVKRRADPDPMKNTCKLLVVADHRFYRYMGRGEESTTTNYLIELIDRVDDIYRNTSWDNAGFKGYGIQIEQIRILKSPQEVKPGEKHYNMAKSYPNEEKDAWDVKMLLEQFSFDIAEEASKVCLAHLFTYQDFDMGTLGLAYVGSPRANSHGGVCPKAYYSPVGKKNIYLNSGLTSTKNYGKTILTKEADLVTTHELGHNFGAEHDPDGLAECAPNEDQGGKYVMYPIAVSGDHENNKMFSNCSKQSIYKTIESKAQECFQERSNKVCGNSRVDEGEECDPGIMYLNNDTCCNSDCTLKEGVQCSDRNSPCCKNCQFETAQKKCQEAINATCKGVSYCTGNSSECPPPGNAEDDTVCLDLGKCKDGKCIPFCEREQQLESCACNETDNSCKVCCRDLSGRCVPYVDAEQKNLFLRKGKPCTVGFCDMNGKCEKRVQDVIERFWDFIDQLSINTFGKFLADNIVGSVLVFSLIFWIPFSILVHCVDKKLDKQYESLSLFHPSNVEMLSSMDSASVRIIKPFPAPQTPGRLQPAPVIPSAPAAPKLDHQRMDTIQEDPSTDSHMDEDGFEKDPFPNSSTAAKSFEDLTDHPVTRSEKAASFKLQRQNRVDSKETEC

Row | SMILES | IC50 [1] | IC50 ([3]; read-out: IC50) | other results
1 | CC(=O)N1C[C@H](S(=O)(=O)c2ccc(OCc3cc(C)nc4c3CCCC4)cc2)C[C@H]1C(=O)NO | 3600 nM |  | 
2 | Cc1cc(COc2ccc(S(=O)(=O)N3CCC(Cc4ccccc4)(C(=O)NO)C3)cc2)c2ccccc2n1 (stereo unspecified) | 42 nM |  | 
3 | Cc1cc(COc2ccc(S(=O)(=O)N3CCNC(C(=O)NO)C3)cc2)c2c(n1)CCCC2 (stereo unspecified) | 110 nM |  | 
4 | Cc1cc(COc2ccc(S(=O)(=O)N[C@@H]3CNC[C@@H]3C(=O)NO)cc2)c2ccccc2n1 (relative stereo) |  | 90 nM | IC50 ([2]; read-out: IC50): 4.7 nM
5 | C#CCN1CC[C@@H](NS(=O)(=O)c2ccc(OCc3cc(C)nc4ccccc34)cc2)[C@@](C)(C(=O)NO)C1 |  | 1000 nM | IC50 ([2]; read-out: pIC50 (converted)): 20 nM
6 | Cc1cc(COc2ccc(S(=O)(=O)N[C@@H]3[C@H]4CC[C@H](C4)[C@@H]3C(=O)NO)cc2)c2ccccc2n1 |  | 18 nM | IC50 ([2]; read-out: IC50): 0.6 nM
7 | CC(=O)N1C[C@H](C(=O)NO)[C@H](NS(=O)(=O)c2ccc(OCc3cc(C)nc4ccccc34)cc2)C1 (relative stereo) |  | 20 nM | IC50 ([2]; read-out: IC50): 0.6 nM
8 | C#CCN1C[C@H](C(=O)NO)[C@H](NS(=O)(=O)c2ccc(OCc3cc(C)nc4ccccc34)cc2)C1 (relative stereo) |  | 90 nM | 
9 | CC#CCOc1ccc(S(=O)(=O)[C@@H]2C[C@H](C(=O)NO)N(C(C)=O)C2)cc1 | > 10000 nM |  | 
10 | Cc1cc(COc2ccc(S(=O)(=O)N[C@@H]3CCN(C(C)C)C[C@]3(C)C(=O)NO)cc2)c2ccccc2n1 |  | 1000 nM | IC50 ([2]; read-out: pIC50 (converted)): 200 nM
11 | Cc1cc(COc2ccc(S(=O)(=O)N[C@@H]3CN(C=O)CCC3C(=O)NO)cc2)c2ccccc2n1 (stereo partly specified) |  | 21 nM | 
12 | Cc1cc(COc2ccc(S(=O)(=O)N3CCCC(C)(C(=O)NO)C3)cc2)c2c(n1)CCCC2 (stereo unspecified) | 40 nM |  | 
13 | Cc1cc(COc2ccc(S(=O)(=O)N(C)[C@H]3[C@@H](C(=O)NO)[C@@H]4CC[C@H]3O4)cc2)c2ccccc2n1 |  | 10 nM | IC50 ([2]; read-out: pIC50 (converted)): 1 nM
14 | CC#CCOc1ccc(C(=O)N2CCC(C(=O)NO)C2)cc1 (stereo unspecified) | > 10000 nM |  | 
15 | Cc1cc(COc2ccc(S(=O)(=O)N[C@@H]3CN(C(=O)OC(C)(C)C)C[C@@H]3C(=O)NO)cc2)c2ccccc2n1 (relative stereo) |  | 38 nM | IC50 ([2]; read-out: IC50): 0.6 nM
16 | Cc1cc(COc2ccc(S(=O)(=O)N3CCOC(C(=O)NO)C3)cc2)c2ccccc2n1 (stereo unspecified) | 180 nM |  | 
17 | Cc1cc(COc2ccc(S(=O)(=O)N[C@@H]3CCCC[C@@H]3C(=O)NO)cc2)c2ccccc2n1 (relative stereo) |  | 80 nM | IC50 ([2]; read-out: IC50): 1 nM

Row | SMILES | IC50 [1] | IC50 ([3]; read-out: IC50) | other results
18 | Cc1cc(COc2ccc(S(=O)(=O)N[C@@H]3CCC[C@]3(F)C(=O)NO)cc2)c2ccccc2n1 |  | 19 nM | IC50 ([2]; read-out: IC50): 0.6 nM
19 | CNC(=O)N1CC[C@@H](NS(=O)(=O)c2ccc(OCc3cc(C)nc4ccccc34)cc2)[C@@](C)(C(=O)NO)C1 |  | 1000 nM | IC50 ([2]; read-out: pIC50 (converted)): 3.98 nM
20 | Cc1cc(COc2ccc(S(=O)(=O)N3CCCOC(C(=O)NO)C3)cc2)c2ccccc2n1 (stereo unspecified) | 71 nM |  | 
21 | CC#CCOc1ccc(S(=O)(=O)N2CCC(C(=O)NO)C2)cc1 (stereo unspecified) | > 10000 nM |  | 
22 | Cc1cc(COc2ccc(S(=O)(=O)N[C@@H]3CCOC[C@@H]3C(=O)NO)cc2)c2ccccc2n1 (relative stereo) |  | 17 nM | 
23 | Cc1cc(COc2ccc(S(=O)(=O)N[C@@H]3CCC[C@]3(O)C(=O)NO)cc2)c2ccccc2n1 |  | 82 nM | 
24 | CC[C@]1(C(=O)NO)CCC[C@H]1N(C)S(=O)(=O)c1ccc(OCc2cc(C)nc3ccccc23)cc1 |  | 1000 nM | IC50 ([2]; read-out: pIC50 (converted)): 10 nM
25 | Cc1cc(COc2ccc(S(=O)(=O)N(C)[C@@H]3[C@@H]4CC[C@@H](C4)[C@@H]3C(=O)NO)cc2)c2ccccc2n1 |  | 52 nM | IC50 ([2]; read-out: pIC50 (converted)): 1 nM
26 | Cc1cc(COc2ccc(S(=O)(=O)N[C@@H]3CCOC[C@]3(C)C(=O)NO)cc2)c2ccccc2n1 |  | 1670 nM | 
27 | Cc1cc(COc2ccc(S(=O)(=O)N[C@@H]3CCC[C@@H]3C(=O)NO)cc2)c2ccccc2n1 (relative stereo) |  | 9 to 11 nM | IC50 ([2]; read-out: pIC50 (converted)): 0.631 nM; IC50 ([3]; read-out: pIC50 (converted)): 10 nM
28 | CC(=O)N1C[C@@H](S(=O)(=O)c2ccc(OCc3cc(C)nc4c3CCCC4)cc2)C[C@@H]1C(=O)NO | > 10000 nM |  | 
29 | Cc1cc(COc2ccc(S(=O)(=O)N[C@@H]3CCOC[C@@]3(C)C(=O)NO)cc2)c2ccccc2n1 |  | 1920 nM | IC50 ([2]; read-out: pIC50 (converted)): 6.31 nM
30 | CC(=O)N1CCC(C(=O)NO)C(NS(=O)(=O)c2ccc(OCc3cc(C)nc4ccccc34)cc2)C1 (stereo unspecified) |  | 202 nM | IC50 ([2]; read-out: pIC50 (converted)): 1.26 nM
31 | Cc1cc(COc2ccc(S(=O)(=O)N3CCC(CC(C)C)(C(=O)NO)C3)cc2)c2ccccc2n1 (stereo unspecified) | 35 nM |  | 
32 | Cc1cc(COc2ccc(S(=O)(=O)N[C@@H]3CN(C(=O)OC(C)(C)C)CC[C@H]3C(=O)NO)cc2)c2ccccc2n1 |  | 58 nM | IC50 ([2]; read-out: IC50): 0.7 nM
33 | CC#CCOc1ccc(S(=O)(=O)N2CCN(C(C)=O)C(C(=O)NO)C2)cc1 (stereo unspecified) | 1500 nM |  | 
34 | Cc1cc(COc2ccc(S(=O)(=O)N(C)[C@@H]3CC=CC[C@@H]3C(=O)NO)cc2)c2ccccc2n1 (relative stereo) |  | 1000 nM | 
